# Tests used:
# [1] = Cytotoxicity against HEK293 cells assessed as cell viability at 25 ug/ml incubated for 20 hrs by XTT assay relative to control; format: toxicity, cell-based; settings: human, at 25 µg/mL, read-out: Activity
# [2] = Mutagenicity in Salmonella typhimurium TA98 assessed as number of revertants per plate at 5000 ug pretreated for 90 mins measured after 66 hrs by AMES test (reference value: 25.67 +/- 5.51); format: toxicity, Salmonella enterica subsp. enterica serovar Typhimurium; settings: in vivo, 67.5 h, dose 5000 µg
# [3] = Mutagenicity in Salmonella typhimurium TA100 assessed as mutagenic index ratio at 150 ug pretreated for 90 mins measured after 66 hrs by AMES test; format: toxicity, Salmonella enterica subsp. enterica serovar Typhimurium; settings: in vivo, 67.5 h, dose 150 µg
# [4] = Mutagenicity in Salmonella typhimurium TA100 assessed as mutagenic index ratio at 50 ug pretreated for 90 mins measured after 66 hrs in presence of S9 by AMES test; format: toxicity, Salmonella enterica subsp. enterica serovar Typhimurium; settings: in vivo, 67.5 h, dose 50 µg
# [5] = Mutagenicity in Salmonella typhimurium TA100 assessed as mutagenic index ratio at 500 ug pretreated for 90 mins measured after 66 hrs by AMES test; format: toxicity, Salmonella enterica subsp. enterica serovar Typhimurium; settings: in vivo, 67.5 h, dose 500 µg
# [6] = Cytotoxicity against HEp-2 cells assessed as cell viability at 256 ug/ml incubated for 20 hrs by XTT assay relative to control; format: toxicity, cell-based; settings: human, at 256 µg/mL, read-out: Activity
# [7] = Mutagenicity in Salmonella typhimurium TA100 assessed as mutagenic index ratio at 5000 ug pretreated for 90 mins measured after 66 hrs in presence of S9 by AMES test; format: toxicity, Salmonella enterica subsp. enterica serovar Typhimurium; settings: in vivo, 67.5 h, dose 5000 µg
# [8] = Mutagenicity in Salmonella typhimurium TA98 assessed as mutagenic index ratio at 150 ug pretreated for 90 mins measured after 66 hrs in presence of S9 fraction by AMES test; format: toxicity, subcellular, Salmonella enterica subsp. enterica serovar Typhimurium; settings: s9, 67.5 h, dose 150 µg
# [9] = Stability of compound in simulated intestinal fluid assessed as compound remaining at 2 mg/ml measured after 24 hrs by HPLC analysis; format: ADME; settings: read-out: Stability
# Anaerostipes caccae = experiment: Antimicrobial activity against Anaerostipes caccae […] assessed as microbial growth inhibition incubated for 48 hrs; format: functional
# [10] = Cytotoxicity against HEC-1-A cells assessed as cell survival at 256 ug/ml incubated for 20 hrs by XTT assay relative to control; format: toxicity, cell-based; settings: human, at 256 µg/mL, read-out: Survival
# [11] = Mutagenicity in Salmonella typhimurium TA100 assessed as number of revertants per plate at 5000 ug pretreated for 90 mins measured after 66 hrs in presence of S9 by AMES test (reference value: 201 +/- 9.90); format: toxicity, Salmonella enterica subsp. enterica serovar Typhimurium; settings: in vivo, 67.5 h, dose 5000 µg
# [12] = Mutagenicity in Salmonella typhimurium TA98 assessed as mutagenic index ratio at 5000 ug pretreated for 90 mins measured after 66 hrs in presence of S9 fraction by AMES test; format: toxicity, subcellular, Salmonella enterica subsp. enterica serovar Typhimurium; settings: s9, 67.5 h, dose 5000 µg
# [13] = Mutagenicity in Salmonella typhimurium TA98 assessed as mutagenic index ratio at 50 ug pretreated for 90 mins measured after 66 hrs by AMES test; format: toxicity, Salmonella enterica subsp. enterica serovar Typhimurium; settings: in vivo, 67.5 h, dose 50 µg
# [14] = Mutagenicity in Salmonella typhimurium TA98 assessed as number of revertants per plate at 500 ug pretreated for 90 mins measured after 66 hrs by AMES test (reference value: 25.67 +/- 5.51); format: toxicity, Salmonella enterica subsp. enterica serovar Typhimurium; settings: in vivo, 67.5 h, dose 500 µg
# Candida albicans = experiment: Antimicrobial activity against Candida albicans 90028 assessed as microbial growth inhibition by broth microdilution method; format: functional
# Escherichia coli [15] = experiment: Antimicrobial activity against non-pathogenic Escherichia coli ATCC MG1655 assessed as microbial growth inhibition incubated for 24 hrs by TTC staining based assay; format: functional
# [16] = Stability of compound in human serum assessed as compound remaining at 2 mg/ml measured after 180 mins by HPLC analysis; format: ADME, cell-free; settings: read-out: Stability
# [17] = Mutagenicity in Salmonella typhimurium TA98 assessed as mutagenic index ratio at 500 ug pretreated for 90 mins measured after 66 hrs by AMES test; format: toxicity, Salmonella enterica subsp. enterica serovar Typhimurium; settings: in vivo, 67.5 h, dose 500 µg
# [18] = Mutagenicity in Salmonella typhimurium TA98 assessed as number of revertants per plate at 1500 ug pretreated for 90 mins measured after 66 hrs in presence of S9 fraction by AMES test (reference value: 24.33 +/- 9.50); format: toxicity, subcellular, Salmonella enterica subsp. enterica serovar Typhimurium; settings: s9, 67.5 h, dose 1500 µg
# Nakaseomyces glabratus = experiment: Antimicrobial activity against Candida glabrata 2001 assessed as microbial growth inhibition by broth microdilution method; format: functional
# Escherichia coli [19] = experiment: Antimicrobial activity against Escherichia coli K12 assessed as microbial growth inhibition incubated for 24 hrs by TTC staining based assay; format: functional
# Chlamydia trachomatis [20] = experiment: Antibacterial activity against Chlamydia trachomatis L2 infected in HEp-2 cells assessed as reduction in number of chlamydial inclusion incubated for 24 hrs by fluorescence microscopy; format: functional, organism-based; settings: dose 1.56-12.5 µg/ml
# Chlamydia trachomatis [21] = experiment: Antibacterial activity against Chlamydia trachomatis serovar L2 infected in HEp-2 cells assessed as bacterial growth inhibition incubated for 16 hrs by IFA assay; format: functional, organism-based; settings: serovar L2, HEp-2, 16 h
# Acinetobacter baumannii = experiment: Antimicrobial activity against Acinetobacter baumannii 2208 assessed as microbial growth inhibition incubated for 24 hrs by TTC staining based assay; format: functional
# [22] = Mutagenicity in Salmonella typhimurium TA100 assessed as mutagenic index ratio at 150 ug pretreated for 90 mins measured after 66 hrs in presence of S9 by AMES test; format: toxicity, Salmonella enterica subsp. enterica serovar Typhimurium; settings: in vivo, 67.5 h, dose 150 µg
# [23] = Mutagenicity in Salmonella typhimurium TA100 assessed as number of revertants per plate at 1500 ug pretreated for 90 mins measured after 66 hrs in presence of S9 by AMES test (reference value: 201 +/- 9.90); format: toxicity, Salmonella enterica subsp. enterica serovar Typhimurium; settings: in vivo, 67.5 h, dose 1500 µg
# [24] = Mutagenicity in Salmonella typhimurium TA100 assessed as number of revertants per plate at 1500 ug pretreated for 90 mins measured after 66 hrs by AMES test (reference value: 206 +/- 7.07); format: toxicity, Salmonella enterica subsp. enterica serovar Typhimurium; settings: in vivo, 67.5 h, dose 1500 µg
# [25] = Mutagenicity in Salmonella typhimurium TA100 assessed as number of revertants per plate at 50 ug pretreated for 90 mins measured after 66 hrs by AMES test (reference value: 206 +/- 7.07); format: toxicity, Salmonella enterica subsp. enterica serovar Typhimurium; settings: in vivo, 67.5 h, dose 50 µg
# [26] = Mutagenicity in Salmonella typhimurium TA98 assessed as mutagenic index ratio at 5000 ug pretreated for 90 mins measured after 66 hrs by AMES test; format: toxicity, Salmonella enterica subsp. enterica serovar Typhimurium; settings: in vivo, 67.5 h, dose 5000 µg
# [27] = Mutagenicity in Salmonella typhimurium TA98 assessed as mutagenic index ratio at 150 ug pretreated for 90 mins measured after 66 hrs by AMES test; format: toxicity, Salmonella enterica subsp. enterica serovar Typhimurium; settings: in vivo, 67.5 h, dose 150 µg
# [28] = tested on: Lacticaseibacillus rhamnosus; experiment: Antimicrobial activity against Lactobacillus rhamnosus CGMCC 1.3724 assessed as microbial growth inhibition incubated for 24 hrs by TTC staining based assay; format: functional
# Candida tropicalis = experiment: Antimicrobial activity against Candida tropicalis 750 assessed as microbial growth inhibition by broth microdilution method; format: functional
# [29] = Mutagenicity in Salmonella typhimurium TA100 assessed as number of revertants per plate at 150 ug pretreated for 90 mins measured after 66 hrs by AMES test (reference value: 206 +/- 7.07); format: toxicity, Salmonella enterica subsp. enterica serovar Typhimurium; settings: in vivo, 67.5 h, dose 150 µg
# [30] = Mutagenicity in Salmonella typhimurium TA100 assessed as number of revertants per plate at 50 ug pretreated for 90 mins measured after 66 hrs in presence of S9 by AMES test (reference value: 201 +/- 9.90); format: toxicity, Salmonella enterica subsp. enterica serovar Typhimurium; settings: in vivo, 67.5 h, dose 50 µg
smiles,measurement,setting,value
N#Cc1ccccc1C1Sc2ccccc2NC2=C1C(=O)c1ccccc12 (stereo unspecified),"viability at 20 h, 25 ug/ml",[1],84%
same,Activity,[2],37.5
same,Ratio,[3],0.91
same,Ratio,[4],0.92
same,Ratio,[5],1.13
same,"viability at 20 h, 256 ug/ml",[6],50%
same,Ratio,[7],1.12
same,Ratio,[8],1.43
same,"remaining at 24 h, 2 mg/ml",[9],85%
same,MIC,Anaerostipes caccae,> 125 µg/mL
same,"viability at 20 h, 256 ug/ml",[10],≥ 75%
same,Activity,[11],227
same,Ratio,[12],1.78
same,Ratio,[13],1.01
same,Activity,[14],38
same,MIC,Candida albicans,> 1000 µg/mL
same,MIC,Escherichia coli [15],> 125 µg/mL
same,"remaining at 3 h, 2 mg/ml",[16],100%
same,Ratio,[17],1.48
same,Activity,[18],30.5
same,MIC,Nakaseomyces glabratus,> 1000 µg/mL
same,MIC,Escherichia coli [19],> 125 µg/mL
same,Activity,Chlamydia trachomatis [20],Dose-Dependent Effect
same,IC50,Chlamydia trachomatis [21]; read-out: IC50,1.61 µg/mL
same,IC50,Chlamydia trachomatis [21]; read-out: pIC50 (converted),4.37 µM
same,MIC,Acinetobacter baumannii,> 125 µg/mL
same,Ratio,[22],0.93
same,Activity,[23],198.5
same,Activity,[24],241
same,Activity,[25],190.5
same,Ratio,[26],1.46
same,Ratio,[27],1.34
same,MIC,[28],> 125 µg/mL
same,MIC,Candida tropicalis,> 1000 µg/mL
same,Activity,[29],187.5
same,Activity,[30],185

# — ChEMBL document CHEMBL5380782, “Design, Biological Evaluation, and Computer-Aided Analysis of Dihydrothiazepines as Selective Antichlamydial Agents” (J Med Chem, 2023)
